The values that follow come from patent US9751837B2, “Kinase inhibitors” (RESPIVERT LIMITED, priority 2014, dated 2017).

The data set in a line: Solubility in fasted-state simulated colonic fluid (FaSSCoF) at pH 6.5. It is filed as physicochemical. Particulars: for solubility thermodynamic at 24 h: 25 °C, pH 6.5, fassgf or other biorelevant, thermodynamic from solid. How it is done: The solubilities of compounds of the invention in FaSSCoF at pH 6.5 are determined using a modification of a previously-reported procedure (Vertzoni, M., et al. Pharm. Res. 2010, 27, 2187-2196). In place of the bile salt extract employed in the original procedure (which extract is no longer available), the modified procedure uses a mixture of sodium taurochlorate (0.15 g), glycocholic acid (0.15 g), ursodeoxycholic acid (0.05 g), cholic acid (0.05 g), and glycodeoxycholic acid (0.05 g). These five bile acids are ground together with a mortar and pestle to produce a fine white powder that is incorporated into the FaSSCoF, as outlined below.
Tris(hydroxymethyl)aminomethane (Tris; 0.275 g) and maleic acid (0.44 g) are dissolved in water (35 mL) to give a solution whose pH is adjusted to 6.5 by treatment with 0.5M NaOH (ca. 12 mL). The solution is then made up to 50 mL with water. A portion of this Tris/maleate buffer solution (ca. 25 mL) is added to a 0.5 L round-bottomed flask, before being treated with 0.00565 g of the bile acid mixture described above. Solutions of phosphatidylcholine (0.0111 g) in DCM (0.15 mL) and palmitic acid (0.0013 g) in DCM (0.15 mL) are added, then the organic solvent is evaporated off under reduced pressure at 40° C. until a clear solution, with no perceptible DCM odour, is achieved. The volume of the evaporated solution is adjusted to 50 mL by addition of the remainder of Tris/maleate buffer, then BSA (0.115 g) is added, before being dissolved by gentle agitation.
Test compounds are suspended in the pH 6.5 FaSSCoF medium to give a maximum final concentration of 2-10 mg/mL. The suspensions are equilibrated at 25° C. for 24 h, before being filtered through a glass fibre C filter. The filtrates are then diluted as appropriate for injection and quantification by HPLC with reference to a standard. Different volumes of the standard, diluted and undiluted sample solutions are injected and the solubilities are calculated using the peak areas determined by integration of the peak found at the same retention time as the principal peak in the standard injection.

Where [1] appears, read: pH 6.5 FaSSCoF Solubility (mg/mL) Run 1.
The mark [2] stands for this setting: pH 6.5 FaSSCoF Solubility (mg/mL) Run 2.

SMILES strings stand for the structures. In brackets after ≈: the same amount, converted by molar mass. Where a name gives a salt, the structure may show the parent alone.

As to `COc1cc(Nc2cc(Oc3ccc(NC(=O)Nc4cc(C(C)(C)C)cc(NS(C)(=O)=O)c4OC)c4ccccc34)ccn2)ccc1C(=O)N[C@H]1C(O)O[C@H](CO)[C@@H](O)[C@@H]1O` (stereo partly drawn) [17(br), 4-((4-((4-(3-(5-(tert-Butyl)-2-methoxy-3-(methylsulfonamido)phenyl)ureido)naphthalen-1-yl)oxy)pyridin-2-yl)amino)-2-methoxy-N-((3R,4R,5S,6R)-2,4,5-trihydroxy-6-(hydroxymethyl)tetrahydro-2H-pyran-3-yl)benzamide], the thermodynamic solubility at 24 h was 9 µg/mL (≈ 10.5 µM) under setting [1] and 8 µg/mL (≈ 9.29 µM) under setting [2].

In the case of `COc1cc(Nc2cc(Oc3ccc(NC(=O)Nc4cc(C(C)(C)C)cc(NS(C)(=O)=O)c4OC)c4ccccc34)ccn2)ccc1C(=O)NC[C@H](O)[C@@H](O)[C@H](O)[C@H](O)CO` [17(bw), 4-((4-((4-(3-(5-(tert-Butyl)-2-methoxy-3-(methylsulfonamido)phenyl)ureido)naphthalen-1-yl)oxy)pyridin-2-yl)amino)-2-methoxy-N-((2S,3R,4R,5R)-2,3,4,5,6-pentahydroxyhexyl)benzamide], the thermodynamic solubility at 24 h by setting is: under setting [1], 2 µg/mL (≈ 2.32 µM); under setting [2], 3 µg/mL (≈ 3.48 µM).

Regarding `COc1cc(Nc2cc(Oc3ccc(NC(=O)Nc4cc(C(C)(C)C)cc(NS(C)(=O)=O)c4OC)c4ccccc34)ccn2)ccc1C(=O)NCCOCCOCCOP(=O)(O)O` [19 (sodium salt), 2-(2-(2-(4-((4-((4-(3-(5-(tert-Butyl)-2-methoxy-3-(methylsulfonamido)phenyl)ureido)-naphthalen-1-yl)oxy)pyridin-2-yl)amino)-2-methoxybenzamido)ethoxy)ethoxy)ethyl dihydrogen phosphate], the “pH 6.5 FaSSCoF Solubility (mg/mL) Run 1” value (24 h, pH 6.5) is more than 4.7 mg/mL.

Regarding `COc1cc(Nc2cc(Oc3ccc(NC(=O)Nc4cc(C(C)(C)C)cc(NS(C)(=O)=O)c4OC)c4ccccc34)ccn2)ccc1C(=O)NCCCCCCC(=O)O` [34 (hydrochloride salt), 7-(4-((4-((4-(3-(5-(tert-Butyl)-2-methoxy-3-(methylsulfonamido)phenyl)ureido)naphthalen-1-yl)oxy)pyridin-2-yl)amino)-2-methoxybenzamido)heptanoic acid, hydrochloride salt], the solubility (thermodynamic) at 24 h under setting [1] was 1 µg/mL and the solubility (thermodynamic) at 24 h under setting [2] was 1 µg/mL.

`CCC(=O)NS(=O)(=O)c1ccc(Nc2nccc(Oc3ccc(NC(=O)Nc4cc(C(C)(C)C)cc(NS(C)(=O)=O)c4OC)c4ccccc34)n2)cc1OC` [17(bk) (sodium salt), N-((4-((4-((4-(3-(5-(tert-Butyl)-2-methoxy-3-(methylsulfonamido)phenyl)ureido)-naphthalen-1-yl)oxy)pyrimidin-2-yl)amino)-2-methoxyphenyl)sulfonyl)propionamide]: the thermodynamic solubility at 24 h runs as follows: under setting [1], 42 µg/mL; under setting [2], 37 µg/mL.

For `COc1cc(Nc2cc(Oc3ccc(NC(=O)Nc4cc(C(C)(C)C)cc(NS(C)(=O)=O)c4OC)c4ccccc34)ccn2)ccc1C(=O)NCC(=O)O` [17(ar) (hydrochloride salt), 2-(4-((4-((4-(3-(5-(tert-Butyl)-2-methoxy-3-(methylsulfonamido)phenyl)ureido)naphthalen-1-yl)oxy)pyridin-2-yl)amino)-2-methoxybenzamido)acetic acid], the solubility (thermodynamic) at 24 h by setting is: under setting [1], 204 µg/mL; under setting [2], 198 µg/mL.

In turn, `COc1cc(Nc2cc(Oc3ccc(NC(=O)Nc4cc(C(C)(C)C)cc(NS(C)(=O)=O)c4OC)c4ccccc34)ccn2)cc(OC)c1C(=O)N1CCN(CCN(C)C)CC1` [17(cg), N-(5-(tert-Butyl)-3-(3-(4-((2-((4-(4-(2-(dimethylamino)ethyl)piperazine-1-carbonyl)-3,5-dimethoxyphenyl)amino)pyridin-4-yl)oxy)naphthalen-1-yl)ureido)-2-methoxyphenyl)methane sulfonamide] returned a solubility (thermodynamic) at 24 h under setting [1] of 2 µg/mL (≈ 2.3 µM).

Turning to `COc1cc(Nc2cc(Oc3ccc(NC(=O)Nc4cc(C(C)(C)C)cc(NS(C)(=O)=O)c4OC)c4ccccc34)ccn2)cc(OC)c1C(=O)NCCC1CCN(C)CC1` [17(at), 4-((4-((4-(3-(5-(tert-Butyl)-2-methoxy-3-(methylsulfonamido)phenyl)ureido)naphthalen-1-yl)oxy)pyridin-2-yl)amino)-2,6-dimethoxy-N-(2-(1-methylpiperidin-4-yl)ethyl)benzamide], the thermodynamic solubility at 24 h is, setting by setting: under setting [1], 9 µg/mL (≈ 10.5 µM); under setting [2], 9 µg/mL (≈ 10.5 µM).

As to `COc1cc(Nc2cc(Oc3ccc(NC(=O)Nc4cc(C(C)(C)C)cc(NS(C)(=O)=O)c4OC)c4ccccc34)ccn2)cc(OC)c1C(=O)NCCN1CCN(CCO)CC1` [Example 37, 4-((4-((4-(3-(5-(tert-Butyl)-2-methoxy-3-(methylsulfonamido)phenyl)ureido)naphthalen-1-yl)oxy)pyridin-2-yl)amino)-N-(2-(4-(2-hydroxyethyl)piperazin-1-yl)ethyl)-2,6-dimethoxybenzamide], the solubility (thermodynamic) at 24 h is, setting by setting: under setting [1], 25 µg/mL (≈ 28.2 µM); under setting [2], 24 µg/mL (≈ 27.1 µM); (pH 6.5 FaSSCoF Solubility (mg/mL) Run 3) 7 µg/mL (≈ 7.91 µM); (pH 6.5 FaSSCoF Solubility (mg/mL) Run 4) 6 µg/mL (≈ 6.78 µM).

Take `COc1cc(Nc2cc(Oc3ccc(NC(=O)Nc4cc(C(C)(C)C)cc(NS(C)(=O)=O)c4OC)c4ccccc34)ccn2)ccc1S(=O)(=O)CCCN1CCOCC1` [Example 20, N-(5-(tert-Butyl)-2-methoxy-3-(3-(4-((2-((3-methoxy-4-((3-morpholinopropyl)sulfonyl)phenyl)-amino)pyridin-4-yl)oxy)naphthalen-1-yl)ureido)phenyl)methanesulfonamide]: the thermodynamic solubility at 24 h under setting [1] is 4 µg/mL (≈ 4.72 µM).

Under setting [1], `COc1cc(Nc2cc(Oc3ccc(NC(=O)Nc4cc(C(C)(C)C)cc(NS(C)(=O)=O)c4OC)c4ccccc34)ccn2)ccc1C(=O)N[C@@H](CO)C(=O)O` [17(bj) (sodium salt), (S)-2-(4-((4-((4-(3-(5-(tert-Butyl)-2-methoxy-3-(methylsulfonamido)phenyl)ureido)-naphthalen-1-yl)oxy)pyridin-2-yl)amino)-2-methoxybenzamido)-3-hydroxypropanoic acid] registered a thermodynamic solubility at 24 h of 1310 µg/mL.

`COc1cc(Nc2cc(Oc3ccc(NC(=O)Nc4cc(C(C)(C)C)cc(NS(C)(=O)=O)c4OC)c4ccccc34)ccn2)cc(OC)c1C(=O)NCCCN1CCOCC1` [Example 23, 4-((4-((4-(3-(5-(tert-Butyl)-2-methoxy-3-(methylsulfonamido)phenyl)ureido)naphthalen-1-yl)oxy)pyridin-2-yl)amino)-2,6-dimethoxy-N-(3-morpholinopropyl)benzamide]: the solubility (thermodynamic) at 24 h by setting is: under setting [1], 8 µg/mL (≈ 9.35 µM); under setting [2], 8 µg/mL (≈ 9.35 µM).

For the molecule `COc1cc(Nc2cc(Oc3ccc(NC(=O)Nc4cc(C(C)(C)C)cc(NS(C)(=O)=O)c4OC)c4ccccc34)ccn2)cc(OC)c1C(=O)NCC(CO)(CO)CO` [17(cn), 4-((4-((4-(3-(5-(tert-Butyl)-2-methoxy-3-(methylsulfonamido)phenyl)ureido)naphthalen-1-yl)oxy)pyridin-2-yl)amino)-N-(3-hydroxy-2,2-bis(hydroxymethyl)propyl)-2,6-dimethoxybenzamide], the solubility (thermodynamic) at 24 h runs as follows: under setting [1], 25 µg/mL (≈ 29.5 µM); under setting [2], 17 µg/mL (≈ 20.1 µM).
